The source of these data is ChEMBL document CHEMBL1129169, “Preparation of N-methoxycarbonyl-N-[2-nitro-4(5)-propylthiophenyl]thiourea as prodrugs of albendazole” (1996).

The structures appear in SMILES notation. Several values for one entry are separate records, joined by “and”; a condition that tells them apart may be missing. Equal entries are not always repeated.

The species entered for assay [1] is Rattus norvegicus. Put plainly: Bioconversion to albendazole sulfonic in rats at 4 hr. In kind it is functional.
The species entered for assay [2] is Rattus norvegicus. Put plainly: Bioconversion to albendazole in rats at 8 hr; detectable. It is filed as functional, organism-based.
The species named for assay [3] is Rattus norvegicus. Put plainly: Bioconversion to albendazole in rats at 2 hr; detectable. In kind it is functional, organism-based.
For assay [4], the species on record is Rattus norvegicus. Briefly: Bioconversion to albendazole sulfonic in rats at 2 hr. It is filed as functional.
The species named for assay [5] is Rattus norvegicus. Briefly: Bioconversion to albendazole sulfonic in rats at 10 hr. In kind it is functional.
The species entered for assay [6] is Rattus norvegicus. Put plainly: Bioconversion to albendazole in rats at 12 hr. It is filed as functional.
The species entered for assay [7] is Rattus norvegicus. Briefly: Bioconversion to albendazole in rats at 12 hr; detectable. In kind it is functional, organism-based.
Assay [8] is filed under the species Rattus norvegicus. Briefly: Bioconversion to albendazole sulfonic in rats at 8 hr. It is filed as functional.
The species entered for assay [9] is Rattus norvegicus. Briefly: Bioconversion to albendazole in rats at 4 hr; detectable. It is filed as functional, organism-based.
Assay [10] is filed under the species Rattus norvegicus. Put plainly: Bioconversion to albendazole in rats at 2 hr. In kind it is functional.
The species entered for assay [11] is Rattus norvegicus. Put plainly: Bioconversion to albendazole in rats at 10 hr; detectable. It is filed as functional, organism-based.
Assay [12] is filed under the species Rattus norvegicus. Put plainly: Bioconversion to albendazole in rats at 6 hr; detectable. In kind it is functional, organism-based.
For assay [13], the species on record is Rattus norvegicus. Put plainly: Bioconversion to albendazole sulfonic in rats at 6 hr. In kind it is functional.
The species named for assay [14] is Rattus norvegicus. Briefly: Bioconversion to albendazole in rats at 8 hr; not detectable. In kind it is functional, organism-based.
The species named for assay [15] is Rattus norvegicus. Put plainly: Bioconversion to albendazole sulfonic in rats at 8 hr; not detectable. In kind it is functional, organism-based.
The species named for assay [16] is Rattus norvegicus. Briefly: Bioconversion to albendazole sulfonic in rats at 12 hr; not detectable. It is filed as functional, organism-based.
For assay [17], the species on record is Rattus norvegicus. Put plainly: Bioconversion to albendazole in rats at 4 hr; not detectable. In kind it is functional, organism-based.
For assay [18], the species on record is Rattus norvegicus. Briefly: Bioconversion to albendazole in rats at 8 hr. In kind it is functional.
The species entered for assay [19] is Rattus norvegicus. Put plainly: Bioconversion to albendazole sulfonic in rats at 4 hr; not detectable. It is filed as functional, organism-based.
The species entered for assay [20] is Rattus norvegicus. Put plainly: Bioconversion to albendazole sulfonic in rats at 10 hr; not detectable. In kind it is functional, organism-based.
The species entered for assay [21] is Rattus norvegicus. Briefly: Bioconversion to albendazole sulfonic in rats at 8 hr; detectable. It is filed as functional, organism-based.
The species named for assay [22] is Rattus norvegicus. Put plainly: Bioconversion to albendazole sulfonic in rats at 6 hr; not detectable. In kind it is functional, organism-based.
The species entered for assay [23] is Rattus norvegicus. Briefly: Bioconversion to albendazole in rats at 12 hr; not detectable. In kind it is functional, organism-based.
The species named for assay [24] is Rattus norvegicus. Put plainly: Bioconversion to albendazole in rats at 2 hr; not detectable. In kind it is functional, organism-based.
For assay [25], the species on record is Rattus norvegicus. Put plainly: Bioconversion to albendazole sulfonic in rats at 2 hr; not detectable. In kind it is functional, organism-based.
Assay [26] is filed under the species Rattus norvegicus. Put plainly: Bioconversion to albendazole sulfonic in rats at 12 hr. In kind it is functional.
Assay [27] is filed under the species Rattus norvegicus. Put plainly: Bioconversion to albendazole in rats at 6 hr; not detectable. In kind it is functional, organism-based.

As for `CCCSc1ccc2[nH]c(NC(=O)OC)nc2c1` [ALBENDAZOLE], the Activity in the assay filed under Rattus norvegicus [1] was 0.3084 µg/mL and 0.1935 µg/mL; in the assay filed under Rattus norvegicus [2], “Detectable”; in the assay filed under Rattus norvegicus [3], “Detectable”; in the assay filed under Rattus norvegicus [4], 0.593 µg/mL and 0.245 µg/mL; in the assay listed under Rattus norvegicus [5], 0.2696 µg/mL and 0.1297 µg/mL; in the assay listed under Rattus norvegicus [6], 0.098 µg/mL. The Activity result is “Detectable” in the assay filed under Rattus norvegicus [7]; 0.28 µg/mL and 0.1113 µg/mL in the assay listed under Rattus norvegicus [8]; “Detectable” in the assay listed under Rattus norvegicus [9]; 0.055 µg/mL in the assay listed under Rattus norvegicus [10]; “Detectable” in the assay listed under Rattus norvegicus [11]; “Detectable” in the assay filed under Rattus norvegicus [12]. In the assay filed under Rattus norvegicus [13], the Activity is 0.2875 µg/mL and 0.4081 µg/mL.

Regarding `CCCSc1ccc([N+](=O)[O-])c(NC(=S)NC(=O)OC)c1`, the Activity in the assay listed under Rattus norvegicus [1] was 0.096 µg/mL; in the assay filed under Rattus norvegicus [14] it was “Not detectable”; in the assay filed under Rattus norvegicus [5] it was 0.0889 µg/mL; in the assay filed under Rattus norvegicus [15], “Not detectable”; in the assay listed under Rattus norvegicus [16], “Not detectable”; in the assay listed under Rattus norvegicus [17], “Not detectable”. Further, the Activity is 0.0792 µg/mL in the assay listed under Rattus norvegicus [18]; “Not detectable” in the assay listed under Rattus norvegicus [19]; “Not detectable” in the assay listed under Rattus norvegicus [20]; “Detectable” in the assay filed under Rattus norvegicus [21]; “Detectable” in the assay filed under Rattus norvegicus [11]; “Not detectable” in the assay filed under Rattus norvegicus [22]. Besides, the Activity result in the assay listed under Rattus norvegicus [23] was “Not detectable”; in the assay listed under Rattus norvegicus [24], “Not detectable”; in the assay filed under Rattus norvegicus [25], “Not detectable”; in the assay filed under Rattus norvegicus [26] it was 0.1622 µg/mL.

Consider `CCCSc1ccc(NC(=S)NC(=O)OC)c([N+](=O)[O-])c1`, for which the Activity in the assay filed under Rattus norvegicus [1] was 0.0927 µg/mL and 0.0958 µg/mL; in the assay filed under Rattus norvegicus [2], “Detectable”; in the assay listed under Rattus norvegicus [3], “Detectable”; in the assay filed under Rattus norvegicus [4] it was 0.1802 µg/mL and 0.1088 µg/mL; in the assay filed under Rattus norvegicus [7], “Detectable”; in the assay listed under Rattus norvegicus [15] it was “Not detectable”. Also, the Activity entry is “Not detectable” in the assay filed under Rattus norvegicus [17]; “Not detectable” in the assay listed under Rattus norvegicus [20]; “Detectable” in the assay listed under Rattus norvegicus [11]; “Not detectable” in the assay listed under Rattus norvegicus [22]; “Not detectable” in the assay filed under Rattus norvegicus [27]; “Detectable” in the assay filed under Rattus norvegicus [12]. In addition, the Activity in the assay listed under Rattus norvegicus [13] was 0.1633 µg/mL; in the assay filed under Rattus norvegicus [26], 0.2704 µg/mL.
